Measured values from ChEMBL document CHEMBL1143427, “Interactions of ceftobiprole with beta-lactamases from molecular classes A to D” (Antimicrob Agents Chemother, 2007).

Key:
[1] = tested on: Klebsiella pneumoniae; assay: Activity of Klebsiella pneumoniae TEM26 assessed as drug hydrolysis by spectrophotometry relative to cephaloridine; set-up: scale not given: the % may be the effect or the level left
[2] = target: Beta-lactamase CTX-M (Escherichia coli) (UniProt Q9EXV5); assay: Ratio of Kcat to Km of Escherichia coli CTX-M-15 assessed as drug hydrolysis by spectrophotometry relative to cephaloridine; set-up: scale not given: the % may be the effect or the level left
[3] = tested on: Klebsiella pneumoniae; assay: Activity of Klebsiella pneumoniae TEM26 assessed as drug hydrolysis by spectrophotometry
[4] = target: Beta-lactamase (Morganella morganii) (UniProt P94958); assay: Ratio of Kcat to Km of Morganella morganii AmpC assessed as drug hydrolysis by spectrophotometry relative to cephaloridine; set-up: scale not given: the % may be the effect or the level left
[5] = target: Beta-lactamase (Pseudomonas aeruginosa (strain ATCC 15692 / PAO1 / 1C / PRS 101 / LMG12228)) (UniProt P24735); assay: Ratio of Kcat to Km of Pseudomonas aeruginosa AmpC assessed as drug hydrolysis by spectrophotometry relative to cephaloridine; set-up: scale not given: the % may be the effect or the level left
[6] = target: Metallo beta-lactamase (Pseudomonas aeruginosa) (UniProt Q6TUJ4); assay: Ratio of Kcat to Km of Pseudomonas aeruginosa IMP1 assessed as drug hydrolysis by spectrophotometry relative to cephaloridine; set-up: scale not given: the % may be the effect or the level left
[7] = target: Beta-lactamase CTX-M (Escherichia coli) (UniProt Q9EXV5); assay: Activity of Escherichia coli CTX-M-15 assessed as drug hydrolysis by spectrophotometry relative to cephaloridine; set-up: scale not given: the % may be the effect or the level left
[8] = target: Beta-lactamase TEM (Escherichia coli) (UniProt P62593); assay: Ratio of Kcat to Km of Escherichia coli TEM1 assessed as drug hydrolysis by spectrophotometry relative to cephaloridine; set-up: scale not given: the % may be the effect or the level left
[9] = target: Beta-lactamase (Pseudomonas aeruginosa (strain ATCC 15692 / PAO1 / 1C / PRS 101 / LMG12228)) (UniProt P24735); assay: Ratio of Kcat to Km of Pseudomonas aeruginosa 18SH AmpC assessed as drug hydrolysis by spectrophotometry relative to cephaloridine; set-up: scale not given: the % may be the effect or the level left
[10] = target: Beta-lactamase (Pseudomonas aeruginosa (strain ATCC 15692 / PAO1 / 1C / PRS 101 / LMG12228)) (UniProt P24735); assay: Ratio of Kcat to Km of Pseudomonas aeruginosa 4352 AmpC assessed as drug hydrolysis by spectrophotometry relative to cephaloridine; set-up: scale not given: the % may be the effect or the level left
[11] = target: Beta-lactamase (Pseudomonas aeruginosa (strain ATCC 15692 / PAO1 / 1C / PRS 101 / LMG12228)) (UniProt P24735); assay: Ratio of Kcat to Km of Pseudomonas aeruginosa MK-1184 AmpC assessed as drug hydrolysis by spectrophotometry relative to cephaloridine; set-up: scale not given: the % may be the effect or the level left
[12] = target: Beta-lactamase (Pseudomonas aeruginosa (strain ATCC 15692 / PAO1 / 1C / PRS 101 / LMG12228)) (UniProt P24735); assay: Activity of Pseudomonas aeruginosa MK-1184 AmpC assessed as drug hydrolysis by spectrophotometry relative to cephaloridine; set-up: scale not given: the % may be the effect or the level left
[13] = target: T1, Beta-lactamase SHV-1 (Klebsiella pneumoniae) (UniProt P0AD64); assay: Ratio of Kcat to Km of Klebsiella pneumoniae SHV1 assessed as drug hydrolysis by spectrophotometry relative to cephaloridine; set-up: scale not given: the % may be the effect or the level left
T1 sequence (whole entry): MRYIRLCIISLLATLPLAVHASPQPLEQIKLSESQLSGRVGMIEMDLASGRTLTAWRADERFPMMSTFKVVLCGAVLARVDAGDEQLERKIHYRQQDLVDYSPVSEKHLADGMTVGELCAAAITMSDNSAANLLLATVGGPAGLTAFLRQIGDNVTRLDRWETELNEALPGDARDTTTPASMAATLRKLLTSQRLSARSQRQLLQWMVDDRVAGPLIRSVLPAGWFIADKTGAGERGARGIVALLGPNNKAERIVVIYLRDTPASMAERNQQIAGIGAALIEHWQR

[14] = target: Beta-lactamase VIM-2 (Pseudomonas aeruginosa) (UniProt Q9K2N0); assay: Activity of Pseudomonas aeruginosa VIM2 assessed as drug hydrolysis by spectrophotometry relative to cephaloridine; set-up: scale not given: the % may be the effect or the level left
[15] = target: T2, Beta-lactamase (Klebsiella oxytoca) (UniProt Q8RT60); assay: Activity of Klebsiella oxytoca beta-lactamase K1 assessed as drug hydrolysis by spectrophotometry relative to cephaloridine; set-up: scale not given: the % may be the effect or the level left
T2 sequence (whole entry): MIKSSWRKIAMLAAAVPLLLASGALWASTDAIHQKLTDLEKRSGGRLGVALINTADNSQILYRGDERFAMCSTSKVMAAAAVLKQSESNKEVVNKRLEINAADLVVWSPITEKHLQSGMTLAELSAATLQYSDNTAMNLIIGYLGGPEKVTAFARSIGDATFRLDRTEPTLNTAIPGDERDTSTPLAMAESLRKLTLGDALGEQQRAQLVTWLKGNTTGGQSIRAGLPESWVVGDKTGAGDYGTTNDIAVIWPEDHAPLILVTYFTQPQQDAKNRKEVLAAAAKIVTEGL

[16] = target: T3, Beta-lactamase (Providencia stuartii) (UniProt O69773); assay: Ratio of Kcat to Km of Providencia stuartii AmpC assessed as drug hydrolysis by spectrophotometry relative to cephaloridine; set-up: scale not given: the % may be the effect or the level left
T3 sequence (whole entry): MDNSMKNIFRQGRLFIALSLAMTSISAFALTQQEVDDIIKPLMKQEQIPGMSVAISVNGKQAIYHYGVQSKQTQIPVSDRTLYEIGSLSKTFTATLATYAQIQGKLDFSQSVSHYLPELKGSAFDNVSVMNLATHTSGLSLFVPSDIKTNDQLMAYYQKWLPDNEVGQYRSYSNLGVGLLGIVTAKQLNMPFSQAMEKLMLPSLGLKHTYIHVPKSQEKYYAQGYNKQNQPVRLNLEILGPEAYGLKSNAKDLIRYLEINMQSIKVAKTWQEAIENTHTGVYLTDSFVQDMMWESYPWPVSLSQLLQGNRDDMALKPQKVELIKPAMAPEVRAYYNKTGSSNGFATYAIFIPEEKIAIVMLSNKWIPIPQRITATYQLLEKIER

[17] = target: Beta-lactamase (Staphylococcus aureus) (UniProt P00807); assay: Ratio of Kcat to Km of Staphylococcus aureus betalactamase PC1 assessed as drug hydrolysis by spectrophotometry relative to cephaloridine; set-up: scale not given: the % may be the effect or the level left
[18] = tested on: Klebsiella pneumoniae; assay: Ratio of Kcat to Km of Klebsiella pneumoniae TEM26 assessed as drug hydrolysis by spectrophotometry relative to cephaloridine; set-up: scale not given: the % may be the effect or the level left
[19] = tested on: Klebsiella pneumoniae; assay: Ratio of Kcat to Km of Klebsiella pneumoniae TEM26 assessed as drug hydrolysis by spectrophotometry
[20] = target: Beta-lactamase TEM (Escherichia coli) (UniProt P62593); assay: Activity of Escherichia coli TEM1 assessed as drug hydrolysis by spectrophotometry relative to cephaloridine; set-up: scale not given: the % may be the effect or the level left
[21] = target: Beta-lactamase (Serratia marcescens) (UniProt P18539); assay: Ratio of Kcat to Km of Serratia marcescens AmpC assessed as drug hydrolysis by spectrophotometry relative to cephaloridine; set-up: scale not given: the % may be the effect or the level left
[22] = target: T2, Beta-lactamase (Klebsiella oxytoca); assay: Ratio of Kcat to Km of Klebsiella oxytoca beta-lactamase K1 assessed as drug hydrolysis by spectrophotometry relative to cephaloridine; set-up: scale not given: the % may be the effect or the level left
[23] = target: Beta-lactamase (Serratia marcescens) (UniProt P18539); assay: Activity of Serratia marcescens AmpC assessed as drug hydrolysis by spectrophotometry relative to cephaloridine; set-up: scale not given: the % may be the effect or the level left
[24] = target: Beta-lactamase (Staphylococcus aureus) (UniProt P00807); assay: Activity of Staphylococcus aureus betalactamase PC1 assessed as drug hydrolysis by spectrophotometry relative to cephaloridine; set-up: scale not given: the % may be the effect or the level left
[25] = target: Beta-lactamase (Morganella morganii) (UniProt P94958); assay: Activity of Morganella morganii AmpC assessed as drug hydrolysis by spectrophotometry relative to cephaloridine; set-up: scale not given: the % may be the effect or the level left
[26] = target: T3, Beta-lactamase (Providencia stuartii); assay: Activity of Providencia stuartii AmpC assessed as drug hydrolysis by spectrophotometry relative to cephaloridine; set-up: scale not given: the % may be the effect or the level left
[27] = target: Beta-lactamase (Pseudomonas aeruginosa (strain ATCC 15692 / PAO1 / 1C / PRS 101 / LMG12228)) (UniProt P24735); assay: Activity of Pseudomonas aeruginosa 18SH AmpC assessed as drug hydrolysis by spectrophotometry relative to cephaloridine; set-up: scale not given: the % may be the effect or the level left
[28] = target: Beta-lactamase (Pseudomonas aeruginosa (strain ATCC 15692 / PAO1 / 1C / PRS 101 / LMG12228)) (UniProt P24735); assay: Activity of Pseudomonas aeruginosa 4352 AmpC assessed as drug hydrolysis by spectrophotometry relative to cephaloridine; set-up: scale not given: the % may be the effect or the level left
[29] = target: T4, Carbapenem-hydrolyzing beta-lactamase SME-3 (Serratia marcescens) (UniProt Q6PRG8); assay: Activity of Serratia marcescens SME3 assessed as drug hydrolysis by spectrophotometry relative to cephaloridine; set-up: scale not given: the % may be the effect or the level left
T4 sequence (whole entry): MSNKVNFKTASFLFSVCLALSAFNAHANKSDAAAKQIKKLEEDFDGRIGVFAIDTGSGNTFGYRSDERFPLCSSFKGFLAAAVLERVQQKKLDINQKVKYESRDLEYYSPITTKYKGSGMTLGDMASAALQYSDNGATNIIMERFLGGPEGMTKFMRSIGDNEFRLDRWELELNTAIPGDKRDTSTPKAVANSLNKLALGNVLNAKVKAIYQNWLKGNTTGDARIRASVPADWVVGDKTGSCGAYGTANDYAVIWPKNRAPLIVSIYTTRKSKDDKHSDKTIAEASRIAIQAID

[30] = target: Beta-lactamase (Pseudomonas aeruginosa (strain ATCC 15692 / PAO1 / 1C / PRS 101 / LMG12228)) (UniProt P24735); assay: Activity of Pseudomonas aeruginosa AmpC assessed as drug hydrolysis by spectrophotometry relative to cephaloridine; set-up: scale not given: the % may be the effect or the level left
[31] = target: T4, Carbapenem-hydrolyzing beta-lactamase SME-3 (Serratia marcescens); assay: Ratio of Kcat to Km of Serratia marcescens SME3 assessed as drug hydrolysis by spectrophotometry relative to cephaloridine; set-up: scale not given: the % may be the effect or the level left
[32] = target: T1, Beta-lactamase SHV-1 (Klebsiella pneumoniae); assay: Activity of Klebsiella pneumoniae SHV1 assessed as drug hydrolysis by spectrophotometry relative to cephaloridine; set-up: scale not given: the % may be the effect or the level left
[33] = target: Beta-lactamase VIM-2 (Pseudomonas aeruginosa) (UniProt Q9K2N0); assay: Ratio of Kcat to Km of Pseudomonas aeruginosa VIM2 assessed as drug hydrolysis by spectrophotometry relative to cephaloridine; set-up: scale not given: the % may be the effect or the level left

Sequence of Beta-lactamase (Pseudomonas aeruginosa (strain ATCC 15692 / PAO1 / 1C / PRS 101 / LMG12228)) (P24735 27-397 limits assumed): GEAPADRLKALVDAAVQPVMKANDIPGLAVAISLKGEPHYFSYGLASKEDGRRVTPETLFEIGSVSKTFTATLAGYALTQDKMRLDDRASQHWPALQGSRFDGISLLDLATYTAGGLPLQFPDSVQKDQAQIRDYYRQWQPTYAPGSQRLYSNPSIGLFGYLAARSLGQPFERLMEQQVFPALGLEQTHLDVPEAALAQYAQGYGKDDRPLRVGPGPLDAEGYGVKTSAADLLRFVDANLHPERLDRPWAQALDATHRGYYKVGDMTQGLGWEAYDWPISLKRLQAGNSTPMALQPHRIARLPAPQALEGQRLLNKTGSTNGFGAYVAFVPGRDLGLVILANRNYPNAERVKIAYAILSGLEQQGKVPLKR
Sequence of Beta-lactamase TEM (Escherichia coli) (P62593 whole entry): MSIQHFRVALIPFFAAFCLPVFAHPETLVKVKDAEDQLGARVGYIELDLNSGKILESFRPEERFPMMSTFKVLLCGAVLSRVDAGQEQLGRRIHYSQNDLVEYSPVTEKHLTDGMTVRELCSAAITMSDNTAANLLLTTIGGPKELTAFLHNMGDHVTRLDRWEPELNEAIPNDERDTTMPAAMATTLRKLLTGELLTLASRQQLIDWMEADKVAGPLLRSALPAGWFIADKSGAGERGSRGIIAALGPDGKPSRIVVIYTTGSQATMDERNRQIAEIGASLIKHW
Sequence of Beta-lactamase (Serratia marcescens) (P18539 whole entry): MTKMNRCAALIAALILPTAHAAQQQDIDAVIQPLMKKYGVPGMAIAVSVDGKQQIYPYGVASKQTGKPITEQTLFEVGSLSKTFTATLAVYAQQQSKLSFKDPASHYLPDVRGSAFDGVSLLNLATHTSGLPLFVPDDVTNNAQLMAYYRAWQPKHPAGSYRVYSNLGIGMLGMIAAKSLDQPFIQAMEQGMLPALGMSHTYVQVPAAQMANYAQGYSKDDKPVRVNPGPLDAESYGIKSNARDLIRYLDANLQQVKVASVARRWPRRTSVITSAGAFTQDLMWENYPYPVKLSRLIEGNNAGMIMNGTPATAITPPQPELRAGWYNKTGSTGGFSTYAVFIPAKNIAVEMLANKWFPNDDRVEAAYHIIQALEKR
Sequence of Beta-lactamase (Staphylococcus aureus) (P00807 whole entry): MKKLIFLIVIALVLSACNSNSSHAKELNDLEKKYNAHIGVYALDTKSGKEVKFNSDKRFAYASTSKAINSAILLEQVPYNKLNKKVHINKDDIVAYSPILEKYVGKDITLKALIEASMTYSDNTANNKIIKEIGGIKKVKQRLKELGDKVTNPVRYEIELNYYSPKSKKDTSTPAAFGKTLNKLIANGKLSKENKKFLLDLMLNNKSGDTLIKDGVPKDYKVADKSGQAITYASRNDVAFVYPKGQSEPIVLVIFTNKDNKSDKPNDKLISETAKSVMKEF
Sequence of Metallo beta-lactamase (Pseudomonas aeruginosa) (Q6TUJ4 as listed by the source): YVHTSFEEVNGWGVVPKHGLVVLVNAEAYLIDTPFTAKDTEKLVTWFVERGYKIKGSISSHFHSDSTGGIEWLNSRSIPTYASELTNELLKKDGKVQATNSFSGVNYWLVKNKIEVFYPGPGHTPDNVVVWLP

In the case of `CO/N=C(\C(=O)N[C@@H]1C(=O)N2C(C(=O)[O-])=C(C[N+]3(C)CCCC3)CS[C@H]12)c1csc(N)n1`, the Activity [1] is reported as 54%, the Activity [2] is reported as 5.1% and the Km [3] is reported as 65 µM. For the same compound, the kcat [3] was 20 s⁻¹, the Activity [4] was under 0.018% and the Activity [5] was 1.6%. It also gave an Activity [6] of 200%, an Activity [7] of 24% and an Activity [8] of 0.38%. It also gave an Activity [9] of 0.5%, an Activity [10] of 0.011% and an Activity [11] of 0.78%. It also gave an Activity [12] of 1.5%, an Activity [13] of 0.81% and an Activity [14] of 0.32%. It also gave an Activity [15] of 8.5%, an Activity [16] of 0.66% and an Activity [17] of 2.5%. For the same compound, the Activity [18] was 55%, the kcat/Km [19] was 310000 M⁻¹ s⁻¹ and the Activity [20] was 0.45%. For the same compound, the Activity [21] was under 0.022%, the Activity [22] was 0.84% and the Activity [23] was under 0.028%. It also gave an Activity [24] of 1.4%, an Activity [25] of under 0.047% and an Activity [26] of 0.57%. It also gave an Activity [27] of under 0.1%, an Activity [28] of under 0.012% and an Activity [29] of 0.13%. It also gave an Activity [30] of 19%, an Activity [31] of 0.18% and an Activity [32] of 0.42%. The Activity [33] was 4.1%.
